US12503471B2, “Triazatricycle compounds for the treatment of autoimmune disease” (Hoffmann-La Roche Inc., priority 2019, dated 2025)

Biological target: T1, human TLR8 (Homo sapiens, UniProt Q9NR97)
T1 construct: host or cells: HEK293 (HEK-Blue hTLR8)
T1 sequence (Q9NR97 27-1041): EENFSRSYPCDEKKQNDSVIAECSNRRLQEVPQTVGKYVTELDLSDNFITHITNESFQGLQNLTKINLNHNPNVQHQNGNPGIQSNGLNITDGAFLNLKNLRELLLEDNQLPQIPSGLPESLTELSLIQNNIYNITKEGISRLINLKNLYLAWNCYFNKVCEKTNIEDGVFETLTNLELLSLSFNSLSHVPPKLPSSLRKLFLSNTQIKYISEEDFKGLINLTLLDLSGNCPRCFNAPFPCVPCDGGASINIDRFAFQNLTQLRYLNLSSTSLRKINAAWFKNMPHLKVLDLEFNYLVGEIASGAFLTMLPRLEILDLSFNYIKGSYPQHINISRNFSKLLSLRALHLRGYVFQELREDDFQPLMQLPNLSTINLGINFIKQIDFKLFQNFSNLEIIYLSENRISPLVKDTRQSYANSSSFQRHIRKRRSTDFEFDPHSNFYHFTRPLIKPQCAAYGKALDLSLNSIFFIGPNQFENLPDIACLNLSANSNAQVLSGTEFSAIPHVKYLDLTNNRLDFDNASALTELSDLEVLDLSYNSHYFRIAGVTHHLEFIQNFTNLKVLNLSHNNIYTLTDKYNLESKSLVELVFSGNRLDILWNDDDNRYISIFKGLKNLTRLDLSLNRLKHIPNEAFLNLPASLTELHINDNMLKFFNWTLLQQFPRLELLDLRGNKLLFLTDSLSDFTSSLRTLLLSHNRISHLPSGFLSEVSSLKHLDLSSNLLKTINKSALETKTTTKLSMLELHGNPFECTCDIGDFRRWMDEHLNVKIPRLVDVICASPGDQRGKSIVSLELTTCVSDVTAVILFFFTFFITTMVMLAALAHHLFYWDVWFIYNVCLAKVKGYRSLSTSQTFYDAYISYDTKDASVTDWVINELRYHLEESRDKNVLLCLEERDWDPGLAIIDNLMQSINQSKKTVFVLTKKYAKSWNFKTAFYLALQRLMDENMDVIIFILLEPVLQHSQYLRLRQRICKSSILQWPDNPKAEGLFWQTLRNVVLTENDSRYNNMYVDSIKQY
Assay: HEK293-Blue-hTLR-8 cells assay
Format: cell-based
Conditions: HEK293-Blue-hTLR8 cells, R848 stimulation, 20 hrs, SEAP reporter; read-out: HEK/hTLR8 IC50
From the text: HEK293-Blue-hTLR-8 Cells Assay:
A stable HEK293-Blue-hTLR-8 cell line was purchased from InvivoGen (Cat. #: hkb-htlr8, San Diego, Calif., USA). These cells were originally designed for studying the stimulation of human TLR8 by monitoring the activation of NF-κB. A SEAP (secreted embryonic alkaline phosphatase) reporter gene was placed under the control of the IFN-β minimal promoter fused to five NF-κB and AP-1-binding sites. The SEAP was induced by activating NF-κB and AP-1 via stimulating HEK-Blue hTLR8 cells with TLR8 ligands. Therefore the reporter expression was declined by TLR8 antagonist under the stimulation of a ligand, such as R848, for incubation of 20 hrs. The cell culture supernatant SEAP reporter activity was determined using QUANTI-Blue™ kit (Cat. #: rep-qbl, Invivogen, San Diego, Ca, USA) at a wavelength of 640 nm, a detection medium that turns purple or blue in the presence of alkaline phosphatase.
HEK293-Blue-hTLR8 cells were incubated at a density of 250,000˜450,000 cells/mL in a volume of 170 μL in a 96-well plate in Dulbecco's Modified Eagle's medium (DMEM) containing 4.5 g/L glucose, 50 U/mL penicillin, […], […], 2 mM L-glutamine, 10% (v/v) heat-inactivated fetal bovine serum with addition of 20 μL test compound in a serial dilution in the presence of final DMSO at 1% and 10 μL of 60 uM R848 in above DMEM, perform incubation under 37° C. in a CO2 incubator for 20 hrs. Then 20 μL of the supernatant from each well was incubated with 180 μL Quanti-blue substrate solution at 37° C. for 2 hrs and the absorbance was read at 620-655 nm using a spectrophotometer. The signaling pathway that TLR8 activation leads to downstream NF-κB activation has been widely accepted, and therefore similar reporter assay was modified for evaluating TLR8 antagonist.

IC50	SMILES
3.6 nM	C[C@@H]1CN(c2ccc(C#N)n3nccc23)C[C@@H]2c3ccc(N4C[C@@H]5C[C@H]4CN5)nc3CN12 [Example 21, 4-[(2S,6R)-11-[(1S,4S)-2,5-diazabicyclo[2.2.1]heptan-2-yl]-6-methyl-4,7,10-triazatricyclo[7.4.0.02,7]trideca-1(9),10,12-trien-4-yl]pyrazolo[1,5-a]pyridine-7-carbonitrile]
< 0.3 nM	[2H]c1ccc2c(N3C[C@@H](C)N4Cc5nc(N6CC[C@H](OC)[C@@H](N)C6)ccc5[C@H]4C3)ccc(C#N)c2n1 [Example 14, 5-[(2S,6R)-11-[(3S,4S)-3-amino-4-methoxy-1-piperidyl]-6-methyl-4,7,10-triazatricyclo[7.4.0.02,7]trideca-1(9),10,12-trien-4-yl]-2-deuterio-quinoline-8-carbonitrile]
0.3 nM	[2H]c1ccc2c(N3C[C@@H](C)N4Cc5nc(C6CCNCC6)ccc5[C@H]4C3)ccc(C#N)c2n1 [Example 23, 2-Deuterio-5-[(2S,6R)-6-methyl-11-(4-piperidyl)-4,7,10-triazatricyclo[7.4.0.02,7]trideca-1(9),10,12-trien-4-yl]quinoline-8-carbonitrile]
< 0.3 nM	[2H]c1ccc2c(N3C[C@@H](C)N4Cc5nc(N6CCC7(CC6)CNCCO7)ccc5[C@H]4C3)ccc(C#N)c2n1 [Example 18, 2-Deuterio-5-[(2S,6R)-6-methyl-11-(1-oxa-4,9-diazaspiro[5.5]undecan-9-yl)-4,7,10-triazatricyclo[7.4.0.02,7]trideca-1(9),10,12-trien-4-yl]quinoline-8-carbonitrile]
